Experimental data as given in patent publication US11324728B2, “Dosing regimens for the treatment of fungal infections” (Seren Pharmaceuticals Inc., priority 2017, dated 2022).
Several values for one entry are separate records, joined by “and”; a condition that tells them apart may be missing. Equal entries are not always repeated.

Assays:
[1] = test system: onychomycosis of the toenail; test: Phase II clinical study: changes over time in efficacy of the target nail (turbidity area ratio, clinical cure, relapse/reinfection); format: in vivo, human; conditions: for Clinical cure (no visual sign of infection) / Clinical cure rate and 95% CI / Remaining of the visual sign of infection: target nail; for Clinical cure (no visual sign of infection) / Clinical cure rate and 95% CI / Remaining of the visual sign of infection / turbidity area ratio regarding the target nail, Mean / turbidity area ratio regarding the target nail, Median: PPS
Experimental: A Phase II clinical pharmacology study was conducted in subjects with onychomycosis of the toenail. The study investigated the pharmacokinetics, efficacy and safety of three different dosing regimens of fosravuconazole. […] The three treatment groups were as follows: • a.
(§1) The efficacy endpoints were: (1) overall clinical efficacy; (2) changes over time in efficacy; (3) confirmation of elements of dermatophytes by direct microscopy; and (4) results of identification of dermatophytes by the polymerase chain reaction (PCR) method.

Trichophyton rubrum = test: Identification of dermatophytes by PCR method: disappearance rate; format: in vivo; conditions: Week 48
From the text: as §1

`C[C@@H](c1nc(-c2ccc(C#N)cc2)cs1)[C@@](Cn1cncn1)(OCOP(=O)(O)O)c1ccc(F)cc1F` [fosravuconazole, 4-[2-[(1R,2R)-2-(2,4-difluorophenyl)-1-methyl-2-[(phosphonooxy)methoxy]-3-(1H-1,2,4-triazol-1-yl)propyl]-4-thiazolyl]benzo-nitrile] was tested, and the relapse/reinfection ([1]; 100 mg (once daily dose) group) was “no subject”, the “Clinical cure (no visual sign of infection)” value ([1]; 100 mg group, Week 48) was 11 and the “Clinical cure rate and 95% CI” value ([1]; 100 mg group, Week 48) was 44.0 (24.5, 65.0) %. The “Remaining of the visual sign of infection” value (from here on “Remaining”) ([1]; 100 mg group, Week 48) was 14, the “turbidity area ratio regarding the target nail, Mean” value ([1]; 100 mg, Start day of treatment) was 76.9% and the “turbidity area ratio regarding the target nail, Median” value ([1]; 100 mg, Start day of treatment) was 75.5%. For the same compound, the “turbidity area ratio regarding the target nail, Mean” value ([1]; 100 mg, Week 4) was 72.9%, the “turbidity area ratio regarding the target nail, Median” value ([1]; 100 mg, Week 4) was 72.0% and the “turbidity area ratio regarding the target nail, Mean” value ([1]; 100 mg, Week 8) was 65.9%. For the same compound, the “turbidity area ratio regarding the target nail, Median” value ([1]; 100 mg, Week 8) was 67.0%, the “turbidity area ratio regarding the target nail, Mean” value ([1]; 100 mg, Week 12) was 55.6% and the “turbidity area ratio regarding the target nail, Median” value ([1]; 100 mg, Week 12) was 56.0%. For the same compound, the “turbidity area ratio regarding the target nail, Mean” value ([1]; 100 mg, Week 16) was 44.2%, the “turbidity area ratio regarding the target nail, Median” value ([1]; 100 mg, Week 16) was 46.0% and the “turbidity area ratio regarding the target nail, Mean” value ([1]; 100 mg, Week 20) was 34.6%. For the same compound, the “turbidity area ratio regarding the target nail, Median” value ([1]; 100 mg, Week 20) was 36.0%, the “turbidity area ratio regarding the target nail, Mean” value ([1]; 100 mg, Week 24) was 26.5% and the “turbidity area ratio regarding the target nail, Median” value ([1]; 100 mg, Week 24) was 25.0%. The “turbidity area ratio regarding the target nail, Mean” value ([1]; 100 mg, Week 28) was 19.4%, the “turbidity area ratio regarding the target nail, Median” value ([1]; 100 mg, Week 28) was 18.0% and the “turbidity area ratio regarding the target nail, Mean” value ([1]; 100 mg, Week 32) was 14.4%. The “turbidity area ratio regarding the target nail, Median” value ([1]; 100 mg, Week 32) was 15.0%, the “turbidity area ratio regarding the target nail, Mean” value ([1]; 100 mg, Week 36) was 12.0% and the “turbidity area ratio regarding the target nail, Median” value ([1]; 100 mg, Week 36) was 9.0%. For the same compound, the “turbidity area ratio regarding the target nail, Mean” value ([1]; 100 mg, Week 40) was 9.6%, the “turbidity area ratio regarding the target nail, Median” value ([1]; 100 mg, Week 40) was 12.0% and the “turbidity area ratio regarding the target nail, Mean” value ([1]; 100 mg, Week 44) was 8.6%. The “turbidity area ratio regarding the target nail, Median” value ([1]; 100 mg, Week 44) was 8.0%, the “turbidity area ratio regarding the target nail, Mean” value ([1]; 100 mg, Week 48) was 9.3% and the “turbidity area ratio regarding the target nail, Median” value ([1]; 100 mg, Week 48) was 6.0%. The relapse/reinfection ([1]; 200 mg (pulse treatment) group) was 4 subjects, the “Clinical cure (no visual sign of infection)” value ([1]; 200 mg group, Week 48) was 7 and the “Clinical cure rate and 95% CI” value ([1]; 200 mg group, Week 48) was 31.8 (13.9, 54.8) %. For the same compound, the “Remaining” value ([1]; 200 mg group, Week 48) was 15, the “turbidity area ratio regarding the target nail, Mean” value ([1]; 200 mg, Start day of treatment) was 76.4% and the “turbidity area ratio regarding the target nail, Median” value ([1]; 200 mg, Start day of treatment) was 74.0%. The “turbidity area ratio regarding the target nail, Mean” value ([1]; 200 mg, Week 4) was 69.6%, the “turbidity area ratio regarding the target nail, Median” value ([1]; 200 mg, Week 4) was 70.0% and the “turbidity area ratio regarding the target nail, Mean” value ([1]; 200 mg, Week 8) was 59.8%. For the same compound, the “turbidity area ratio regarding the target nail, Median” value ([1]; 200 mg, Week 8) was 58.5%, the “turbidity area ratio regarding the target nail, Mean” value ([1]; 200 mg, Week 12) was 51.4% and the “turbidity area ratio regarding the target nail, Median” value ([1]; 200 mg, Week 12) was 49.0%. For the same compound, the “turbidity area ratio regarding the target nail, Mean” value ([1]; 200 mg, Week 16) was 45.0%, the “turbidity area ratio regarding the target nail, Median” value ([1]; 200 mg, Week 16) was 45.0% and the “turbidity area ratio regarding the target nail, Mean” value ([1]; 200 mg, Week 20) was 35.8%. For the same compound, the “turbidity area ratio regarding the target nail, Median” value ([1]; 200 mg, Week 20) was 34.0%, the “turbidity area ratio regarding the target nail, Mean” value ([1]; 200 mg, Week 24) was 27.9% and the “turbidity area ratio regarding the target nail, Median” value ([1]; 200 mg, Week 24) was 25.0%. The “turbidity area ratio regarding the target nail, Mean” value ([1]; 200 mg, Week 28) was 23.3%, the “turbidity area ratio regarding the target nail, Median” value ([1]; 200 mg, Week 28) was 18.0% and the “turbidity area ratio regarding the target nail, Mean” value ([1]; 200 mg, Week 32) was 20.0%. For the same compound, the “turbidity area ratio regarding the target nail, Median” value ([1]; 200 mg, Week 32) was 9.0%, the “turbidity area ratio regarding the target nail, Mean” value ([1]; 200 mg, Week 36) was 18.2% and the “turbidity area ratio regarding the target nail, Median” value ([1]; 200 mg, Week 36) was 11.5%. For the same compound, the “turbidity area ratio regarding the target nail, Mean” value ([1]; 200 mg, Week 40) was 16.0%, the “turbidity area ratio regarding the target nail, Median” value ([1]; 200 mg, Week 40) was 10.0% and the “turbidity area ratio regarding the target nail, Mean” value ([1]; 200 mg, Week 44) was 13.5%. For the same compound, the “turbidity area ratio regarding the target nail, Median” value ([1]; 200 mg, Week 44) was 5.0%, the “turbidity area ratio regarding the target nail, Mean” value ([1]; 200 mg, Week 48) was 14.6% and the “turbidity area ratio regarding the target nail, Median” value ([1]; 200 mg, Week 48) was 9.0%. The “Clinical cure (no visual sign of infection)” value ([1]; 300 mg group, Week 48) was 11, the “Clinical cure rate and 95% CI” value ([1]; 300 mg group, Week 48) was 40.7 (22.4, 61.2) % and the “Remaining” value ([1]; 300 mg group, Week 48) was 16. For the same compound, the relapse/reinfection ([1]; 400 mg group) was 1 subject, the “turbidity area ratio regarding the target nail, Mean” value ([1]; 400 mg, Start day of treatment) was 74.4% and the “turbidity area ratio regarding the target nail, Median” value ([1]; 400 mg, Start day of treatment) was 76.0%. The “turbidity area ratio regarding the target nail, Mean” value ([1]; 400 mg, Week 4) was 66.9%, the “turbidity area ratio regarding the target nail, Median” value ([1]; 400 mg, Week 4) was 67.0% and the “turbidity area ratio regarding the target nail, Mean” value ([1]; 400 mg, Week 8) was 57.4%. For the same compound, the “turbidity area ratio regarding the target nail, Median” value ([1]; 400 mg, Week 8) was 59.0%, the “turbidity area ratio regarding the target nail, Mean” value ([1]; 400 mg, Week 12) was 49.3% and the “turbidity area ratio regarding the target nail, Median” value ([1]; 400 mg, Week 12) was 52.0%. For the same compound, the “turbidity area ratio regarding the target nail, Mean” value ([1]; 400 mg, Week 16) was 40.6%, the “turbidity area ratio regarding the target nail, Median” value ([1]; 400 mg, Week 16) was 41.0% and the “turbidity area ratio regarding the target nail, Mean” value ([1]; 400 mg, Week 20) was 31.1%. The “turbidity area ratio regarding the target nail, Median” value ([1]; 400 mg, Week 20) was 29.0%, the “turbidity area ratio regarding the target nail, Mean” value ([1]; 400 mg, Week 24) was 25.7% and the “turbidity area ratio regarding the target nail, Median” value ([1]; 400 mg, Week 24) was 20.0%. The “turbidity area ratio regarding the target nail, Mean” value ([1]; 400 mg, Week 28) was 18.3%, the “turbidity area ratio regarding the target nail, Median” value ([1]; 400 mg, Week 28) was 16.0% and the “turbidity area ratio regarding the target nail, Mean” value ([1]; 400 mg, Week 32) was 14.9%. For the same compound, the “turbidity area ratio regarding the target nail, Median” value ([1]; 400 mg, Week 32) was 12.0%, the “turbidity area ratio regarding the target nail, Mean” value ([1]; 400 mg, Week 36) was 13.5% and the “turbidity area ratio regarding the target nail, Median” value ([1]; 400 mg, Week 36) was 9.0%. For the same compound, the “turbidity area ratio regarding the target nail, Mean” value ([1]; 400 mg, Week 40) was 11.8%, the “turbidity area ratio regarding the target nail, Median” value ([1]; 400 mg, Week 40) was 6.0% and the “turbidity area ratio regarding the target nail, Mean” value ([1]; 400 mg, Week 44) was 11.9%. For the same compound, the “turbidity area ratio regarding the target nail, Median” value ([1]; 400 mg, Week 44) was 6.0%, the “turbidity area ratio regarding the target nail, Mean” value ([1]; 400 mg, Week 48) was 12.7% and the “turbidity area ratio regarding the target nail, Median” value ([1]; 400 mg, Week 48) was 8.0%. For the same compound, the “Disappearance rate of Trichophyton rubrum” value (from here on “Disappearance rate”) (Trichophyton rubrum; 100 mg (once daily dose) group) was 57.1%, the “Disappearance rate” value (Trichophyton rubrum; 200 mg (pulse treatment) group) was 36.8% and the “Disappearance rate” value (Trichophyton rubrum; 400 mg (pulse treatment) group) was 52.1% and 52.0%.
